Measurements taken from patent US11419834B2, “Methods for treating diseases or infections caused by or associated with H. pylori using a halogenated salicylanilide” (Rhode Island Hospital, priority 2019, dated 2022).
In brackets after ≈: the same amount, converted by molar mass. Entries after “also recorded” stand apart in the source; their conditions may differ.

Legend:
H. Pylori 51932 = assay: Broth microdilution assay, MIC; assay type: cell-based; settings: Helicobacter pylori; strain H. Pylori 51932
[1] = tested on: H. pylori reference strain 60190 (ATCC 49503); assay: Broth microdilution assay, MIC; assay type: cell-based; settings: Helicobacter pylori, ATCC49503, 72 h; H. pylori strain 60190; Müller-Hinton broth + 10% FBS, 3 days
H. pylori strain 60190 = assay: Minimum bactericidal concentration (plating from MIC assay); assay type: cell-based, Helicobacter pylori; settings: Helicobacter pylori; H. pylori strain 60190; read-out: MBC
H. Pylori 49503 = assay: Broth microdilution assay, MIC; assay type: cell-based; settings: Helicobacter pylori; strain H. Pylori 49503
[2] = tested on: H. pylori vacA gene expression; assay: RT-PCR study on VacA toxin expression; assay type: cell-based, Helicobacter pylori; settings: sub-MIC level of 200 ng/mL, 3 days
H. pylori (strain 60190) = assay: Effect of pH on MIC (broth microdilution); assay type: cell-based, Helicobacter pylori
Experimental: The pH was adjusted to acidic condition with 1 N HCl. The minimal bactericidal concentration (MBC) was determined by plating 5 μL of broth culture from the MIC assay onto Müller-Hinton agar (BD Biosciences) supplemented with 10% FBS. After 72 h, the lowest concentration at which colonies were not observed was reported as the MBC.

H. Pylori 43504 = assay: Broth microdilution assay, MIC; assay type: cell-based; settings: Helicobacter pylori; strain H. Pylori 43504
[3] = tested on: IL-8 secretion from MKN-28 cells co-cultured with H. pylori; assay: IL-8 secretion, real-time RT-PCR; assay type: cell-based; settings: 4×MIC, 1.0 μg/mL, 24 hour incubation, H. pylori infected MKN-28 cells
Experimental: Real-Time (RT-PCR) was carried out to determine whether niclosamide has an inhibitory role in IL-8 secretion. MKN-28 cells were co-cultured with H. pylori (MOI=100) in the presence or absence of a test compound. At 24 hours, RNA was isolated from the infected host cells. cDNA was synthesized using the Verso cDNA (Invitrogen) synthesis kit according to manufacturer instructions. Quantitative real-time reactions were carried out in a Bio-Rad iTaq universal SYBR (Bio-Rad, Hercules, Calif. USA) one-step kit and a CFX98 real-time PCR cycler as described by Zheng et al. (Future Med. Chem. 2018, February; 10(3):283-296). The relative gene expression was calculated from Cq values using a ΔΔCq method.

[4] = tested on: AGS cells co-cultured with H. pylori (strain 60190); assay: Light microscopy imaging for vacuolation; assay type: cell-based; settings: sub-MIC (0.2 μg/mL), 24 h, MOI of 100
Experimental: H. Pylon bacteria secrete VacA toxin via a type V secretion system (Galmiche et al. Gut Microbes. 2010 November-December; 1(6):392-5. 44). This toxin binds to host gastric epithelial cells and its internalization leads to vacuolation, characterized by the accumulation of large vacuoles in gastric epithelial cells during the infection process. AGS cells were harvested and seeded into a 6 well plate at a concentration of 5×10^5 cells, 24 h before experimentation. H. Pylon bacteria (strain 60190) were harvested and washed with sterile PBS and co-cultured with AGS at a MOI of 100. After incubation for 24 h, the cells were washed, magnified under a microscope, and examined for vacuolation. […] After 3 days, the bacteria were washed and treated with TRIZOL (Invitrogen, Carlsbad, Calif., USA), and the RNA concentration was determined using a NanoVue Plus spectrophotometer (GE Healthcare, Fairfield, Conn., USA). PCR amplifications were performed, and the products were analysed by gel electrophoresis (1.0% agarose) containing SYBR® Safe (Invitrogen). Gel images were captured and analysed using the Quantity One System.

With O=C(Nc1ccc([N+](=O)[O-])cc1Cl)c1cc(Cl)ccc1O [Niclosamide, niclosamide] the MIC (H. Pylori 51932) was 0.5 µg/mL (≈ 1.53 µM), the MIC [1] was 0.25 µg/mL and the MBC (H. pylori strain 60190) was 0.5 µg/mL (≈ 1.53 µM). For the same molecule, the MIC (H. Pylori 49503) was 0.25 µg/mL (≈ 0.764 µM), the “effect on VacA expression compared to housekeeping gene rpoB” value [2] was “down-regulated vacA gene; also recorded: downregulates VacA expression” and the MIC (H. pylori (strain 60190); Helicobacter pylori, acidic pH, tested between pH 7.0 to 5.2, read-out: MIC in low pH) was 0.25 µg/mL (≈ 0.764 µM). The “change of MIC at acidic pH compared to pH 7.0” value (H. pylori (strain 60190); pH 7.0 to 5.2) was “remained the same”, the MIC (H. Pylori 43504) was 0.125 µg/mL (≈ 0.382 µM) and the “effect on IL-8 secretion” value [3] was “inhibited IL-8 secretion”. For the same molecule, the “effect on vacuolation of AGS cells” value [4] was “prevented vacuolation”.
